The text below walks through data of publication PMC10215199 (Antioxidants, 2023).

In general, IC50 refers to the concentration at which inhibition is half-maximal. In general, inhibition refers to the share of the control response that was lost under treatment.

Entries after “also recorded” stand apart in the source; their conditions may differ. Like-named read-outs stand apart in the source and are kept apart here.

Data set [1] deals with AChE. The arrangement: method as in PMID 31891098. The following applies: chromone-based compound 1, Figure 1; cited from earlier work.
The test system of data set [2] is MAO-B. The following applies: cited from earlier work.
Data set [3] has as its target T1, recombinant human MAO-A (Homo sapiens, UniProt P21397).
T1 sequence (P21397 1-527): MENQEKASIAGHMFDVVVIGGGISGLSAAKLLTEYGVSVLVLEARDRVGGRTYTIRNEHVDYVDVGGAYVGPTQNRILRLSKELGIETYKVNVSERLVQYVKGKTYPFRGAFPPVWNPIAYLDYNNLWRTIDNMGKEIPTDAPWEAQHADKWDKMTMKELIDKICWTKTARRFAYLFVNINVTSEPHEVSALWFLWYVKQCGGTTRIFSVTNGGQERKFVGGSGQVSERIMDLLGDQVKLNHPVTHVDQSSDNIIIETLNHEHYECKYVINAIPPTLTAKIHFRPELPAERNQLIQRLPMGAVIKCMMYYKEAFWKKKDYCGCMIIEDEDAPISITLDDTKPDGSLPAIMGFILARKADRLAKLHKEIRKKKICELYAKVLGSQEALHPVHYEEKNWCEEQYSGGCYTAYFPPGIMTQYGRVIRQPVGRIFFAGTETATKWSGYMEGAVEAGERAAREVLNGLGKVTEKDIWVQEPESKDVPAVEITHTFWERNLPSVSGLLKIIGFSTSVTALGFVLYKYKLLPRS
Description: Monoamine oxidase-A inhibition assay (Amplex red fluorescence). Type of data set: biochemical. Particulars: for inhibition at 1 µM: read-out: % Inhibition MAO-A; for inhibition at 100 µM: read-out: MAO-A % Inhibition. As for the experimental part: Two isoforms of MAOs, namely MAO-A and MAO-B, are expressed in CNS, showing different substrate specificity. Consequently, different pharmacological effects can be elicited depending on the inhibited MAO isoform. Therefore, the prepared O^6-aminoalkyl-hispidol analogs were evaluated against both recombinant human MAO-A and MAO-B isoforms following the well-established spectrophotometric method.
2. Biological evaluations
2.1. In vitro assay of human monoamine oxidases inhibition
The MAO activity was quantified by measuring fluorescence intensity evoked by Amplex red reaction in which Amplex red reacts with hydrogen peroxide from the MAO reaction to produce highly fluorescent resorufin. The test compound in DMSO (final concentration: 1 nM – 10 μM or 10 nM – 100 μM ) and hMAO enzyme (Sigma Aldrich, St. Louis, MO, USA) in 50 mM sodium phosphate buffer (pH 7.4, final protein amount: ~1.25 μg of MAO-A/well and 2.5 μg of MAO-B/well) were loaded on 96-well black plate and incubated for 15 min at 37 °C. Then working solution of 200 μM Amplex Red (Cayman, Ann Arbor, MI, USA), 1 U/mL horseradish peroxidase (Sigma-Aldrich) and 1 mM substrate (p-tyramine for MAO-A, benzylamine for MAO-B, Sigma-Aldrich) in 50 mM sodium phosphate buffer (pH 7.4) was added and incubated for 20 min at 37 °C in the dark. The fluorescence was measured using a microplate reader (SpectraMax®i3, Molecular Device, San Jose, CA, USA) with an excitation at 545 nm and an emission at 590 nm. […]
(§1) of compounds were determined as the mean ± S.E.M. in triplicate from the dose-response inhibition curves using SigmaPlot® 13.0.

Data set [4] has as its target T2, acetylcholinesterase (AChE) (Mus musculus, UniProt P21836).
T2 construct: The supernatant obtained was used as a source of enzyme for; from tissue; host or cells: whole brain of male ICR mice, supernatant of the homogenate
T2 sequence (P21836 32-614): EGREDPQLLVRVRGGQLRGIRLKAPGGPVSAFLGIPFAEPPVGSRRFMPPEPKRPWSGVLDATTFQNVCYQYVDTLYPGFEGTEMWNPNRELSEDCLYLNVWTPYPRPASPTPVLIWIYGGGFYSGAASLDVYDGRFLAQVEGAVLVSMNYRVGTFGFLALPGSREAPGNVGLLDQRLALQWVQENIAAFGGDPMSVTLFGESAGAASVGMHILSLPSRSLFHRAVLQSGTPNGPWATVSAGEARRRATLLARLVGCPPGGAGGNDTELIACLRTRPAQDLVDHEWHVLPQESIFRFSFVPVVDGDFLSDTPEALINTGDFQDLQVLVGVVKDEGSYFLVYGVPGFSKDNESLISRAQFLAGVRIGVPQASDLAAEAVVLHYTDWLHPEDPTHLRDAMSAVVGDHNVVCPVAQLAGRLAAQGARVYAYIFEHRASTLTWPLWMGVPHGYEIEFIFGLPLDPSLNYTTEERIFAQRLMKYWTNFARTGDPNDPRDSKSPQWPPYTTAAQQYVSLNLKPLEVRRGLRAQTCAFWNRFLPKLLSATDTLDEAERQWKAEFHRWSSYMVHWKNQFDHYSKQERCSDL
The experiment in a line: Acetylcholinesterase inhibition assay (Ellman, mouse whole brain homogenate). Type of data set: biochemical. The following applies: for IC50: ±SD. As to the method: as §1
2.2. In vitro acetylcholinesterase inhibition assay
(Eyela, Japan) containing 50 volumes of phosphate buffer (pH 8.0, 0.1 M), and then centrifuged at 14,000 rpm for 20 min at 4 °C. The supernatant obtained was used as a source of enzyme for the assay. Each drug was initially dissolved in dimethyl sulfoxide (DMSO) and diluted to various concentrations immediately before use. An aliquot of diluted drug solution was then mixed wit h 640 μL of phosphate buffer (0.1 M, pH 8.0), 25 μL of buffered Ellman’s reagent (10 mM 5,5′- dithio-bis(2-nitrobenzoic acid) and 15 mM sodium bicarbonate), and the enzyme source (100 μL) and pre-incubated at room temperature for 10 min. Then 5 μL of acetylthiocholine iodide solution (75 mM) was added to this mixture and mixed. Absorbance was measured at 410 nm after 10 min for the reaction adding 5 μL of acetylthiocholine iodide solution (75 mM) and to the reaction mixtures (OPTIZEN 2120UV, Mecasys Co. Ltd, Korea).

The target of data set [5] is T3, recombinant human MAO-B (Homo sapiens, UniProt P27338).
T3 construct: purchased Sigma Aldrich
T3 sequence (P27338 1-520): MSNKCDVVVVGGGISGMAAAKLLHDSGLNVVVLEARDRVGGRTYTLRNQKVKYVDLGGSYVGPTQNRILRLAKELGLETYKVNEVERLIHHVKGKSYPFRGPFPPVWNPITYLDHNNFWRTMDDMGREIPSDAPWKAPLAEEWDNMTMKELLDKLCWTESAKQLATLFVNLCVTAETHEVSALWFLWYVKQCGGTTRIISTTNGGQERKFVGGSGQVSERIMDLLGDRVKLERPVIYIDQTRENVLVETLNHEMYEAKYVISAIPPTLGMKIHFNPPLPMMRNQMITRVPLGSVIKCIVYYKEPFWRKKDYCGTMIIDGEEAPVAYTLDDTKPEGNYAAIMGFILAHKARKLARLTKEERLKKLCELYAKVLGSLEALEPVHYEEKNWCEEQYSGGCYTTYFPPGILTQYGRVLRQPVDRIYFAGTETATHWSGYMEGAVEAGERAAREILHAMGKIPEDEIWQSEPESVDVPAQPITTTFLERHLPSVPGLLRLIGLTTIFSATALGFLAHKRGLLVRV
Description: biochemical. Particulars: for MAO-B Selectivity Index: calculated from MAO-A and MAO-B IC50 values; for inhibition at 10 µM: single dose concentration of 10 µM; for inhibition at 10 µM / IC50: ±sem; for IC50: five doses.

Data set [6] has as its system PGE2 production in LPS-induced BV2 cells. Description: Inhibition of LPS-induced production of PGE2 in BV2 cells. Type of data set: cell-based, murine. Particulars: LPS 500 ng/ml. As to the method: indicated concentrations of test compounds for 24 h. After replacing the culture media with fresh
2.3.2. Inhibition of LPS-induced production of PGE2
The concentrations of PGE2 in
Sciences, NY, USA) according to the manufacturer’s instructions. […]

The test system of data set [7] is immobility in forced swim test. Description: Forced swim test, acute treatment. The following applies: 1 and 10 mg/kg p.o.; for Immobility time in forced-swim test: versus control group.
For data set [8], the system named is scopolamine-induced cognitive deficits. The experiment in a line: Passive avoidance test, scopolamine-induced cognitive deficits. The format is in vivo. The following applies: scopolamine 1 mg/kg i.p., mice.
Data set [9] concerns microglial BV2 cells. Description: BV2 cell viability (WST-1 assay). The following applies: up to 10 micromolar, in presence of LPS, 24 h. As for the experimental part: 2.3. In vitro cellular evaluations
2.3.1. Cell culture and viability determination
Murine BV2 microglial cells obtained from the Korean Cell Line Bank (Seoul, Republic of Korea) were cultured in DMEM with 10% FBS, 100 U/ml penicillin, and 100 μg/ml streptomycin at 37°C in a humidified 5% CO2 atmosphere. Cell viability and toxicity were determined by the WST-1 assay (Roche, Mannheim, Germany). Briefly, BV2 cells in sterile plates were incubated with the […]

For data set [10], the system named is MAO-A. The following applies: Figure 1, cited from earlier work.
The mark [11] stands for this setting: single dose concentration of 1 µM, ±sem, NI = no measured inhibition.
Setting [12] is: single dose concentration of 100 µM, ±sem.
[13] abbreviates: 10 mg/kg p.o., donepezil 5 mg/kg p.o. as comparator.

Regarding `O=c1ccoc2ccc(OCCCN3CCCCC3)cc12` [Compound 1], the IC50 is 5580 nM in data set [1] and 7200 nM in data set [2] (chromone-based compound 1, Figure 1).

Turning to `CCN(CC)CCOc1ccc2c(c1)O/C(=C\c1ccccc1OC)C2=O` [Compound 3aa], the inhibition at 1 µM in data set [3] (setting [11]) was less than 0%. Also, the inhibition at 100 µM in data set [3] (setting [12]) stood at 27.2 ± 2.94%. For the same compound, the IC50 is more than 100000 nM in data set [3] (±sem, read-out: MAO-A IC50); 2670 ± 50 nM in [4]; 960 ± 4 nM in data set [5]. Besides, in data set [4] (ratio of potency), the “AChE potency relative to the reference galantamine” value is approximately 1.8 times. Moreover, the “MAO-B Selectivity Index” value in data set [5] is given as more than 104. Besides, the inhibition at 10 µM in data set [5] was 91.49 ± 0.27%. Also, the entries for the “LPS-induced PGE2 production in BV2 cells” value in data set [6] (10 micromolar dose) and in data set [6] (five micromolar concentration) were “returned to almost normal levels” and “attrition of the inhibitory effect”, respectively. In addition, the “Antidepressant-like effect in forced-swim test” value in data set [7] is listed as “did not show antidepressant-like effects”. Also, the “Immobility time in forced-swim test” value in data set [7] is “significantly increased immobility time”. Besides, the “Latency in the retention experiment, passive avoidance” value (“Latency in the retention experiment” for short) in data set [8] (1 mg/kg p.o.) and in data set [8] (setting [13]) was “did not show significant amelioration of cognitive deficits” throughout.

In the case of `COc1ccc(/C=C2\Oc3cc(OCCCCN4CCCC4)ccc3C2=O)cc1` [Compound 3al], the inhibition at 1 µM in data set [3] (setting [11]) is less than 0%. The “MAO-A % Inhibition” value in [3] (single dose concentration of 100 µM, ±sem, 100 µM) came to 14.89 ± 3.46%. Besides, the inhibition at 100 µM in data set [3] (setting [12]) is approximately 15%. For the same compound, the IC50 is more than 100000 nM in [3] (±sem, read-out: MAO-A IC50); 1420 ± 90 nM in [4]; 8650 ± 196 nM in data set [5]. For the same compound, the “MAO-B Selectivity Index” value in data set [5] is more than 12. Further, the inhibition at 10 µM in data set [5] came out at 49.8 ± 0.02%.

In the case of `COc1cc(/C=C2\Oc3cc(OCCN4CCCC4)ccc3C2=O)cc(OC)c1OC` [Compound 3bc], in data set [3], the IC50 is more than 100000 nM, the inhibition at 1 µM was less than 0% and the inhibition at 100 µM is 21.4 ± 3.51%. Moreover, the “Cellular viability of microglial BV2 cells” value in [9] is reported as “absence of cytotoxic activity”. In addition, in [5], the inhibition at 10 µM was 99.3 ± 0.38% and the IC50 was 340 ± 2 nM. Besides, the “LPS-induced PGE2 production in BV2 cells” value in data set [6] (10 micromolar dose) is given as “returned to almost normal levels”. Besides, the “LPS-induced PGE2 production in BV2 cells” value in data set [6] (five micromolar concentration) is listed as “normal PGE2 production level”. Further, in [7], the “Antidepressant-like effect in forced-swim test” value is “did not show antidepressant-like effects” and the “Immobility time in forced-swim test” value is listed as “significantly increased immobility time”. The “Latency in the retention experiment” value in data set [8] (1 mg/kg p.o.) was “significantly enhanced latency”. The “Latency in the retention experiment” value in data set [8] (setting [13]) is “significantly enhanced latency; also recorded: as effective as donepezil”.

With `COc1ccc(/C=C2\Oc3cc(O)ccc3C2=O)c(OC)c1OC` [Hispidol Analog], the IC50 in [2] (ring-B methoxylated hispidol analog, Figure 1) is 170 nM; in data set [10] (ring-B methoxylated hispidol analog), more than 100000 nM.

As for `O=C1/C(=C/c2ccc(O)cc2)Oc2cc(O)ccc21` [Hispidol, hispidol], the IC50 is 202000 nM in [4], 2450 nM in data set [2] (reported value for hispidol) and 260 nM in [10] (reported value for hispidol).
